SMILES strings stand for the structures.

This assay concerns the target Human TRPV3 (Homo sapiens (Human), UniProt Q8NET8). The experiment in a line: Screening for TRPV3 antagonist using the 45Calcium uptake assay. It is filed as cell-based. The conditions noted are these: 2-APB (500 μM) induced 45Ca uptake, human TRPV3 expressing CHO cells. The source says: The illustrative examples of the present invention are screened for TRPV3 activity according to a modified procedure described in Tóth, A., Kedei, N., Wang, Y. and Blumberg, P. M. Life Sciences (2003), 73, 487-498. The screening of the compounds can be carried out by other methods and procedures known to a person skilled in the art. Such screening methods may be found in (a) Hu, H.-Z. et al. J. Biol. Chem. (2004), 279, 35741-35747; (b) Smith, G. D. et al. Nature (2002), 418, 186-190; (c) Peier, A. M. et al. Science (2002), 296, 2046-2049.
Screening for TRPV3 Antagonist Using the ^45Calcium Uptake Assay:
The inhibition of TRPV3 receptor activation was followed as inhibition of 2-aminoethoxydiphenylborate (2-APB) induced cellular uptake of radioactive calcium. Test compounds were dissolved in dimethyl sulfoxide (DMSO) to prepare 20 mM stock solution and then diluted using plain medium with DMEM/F-12 containing 1.8 mM CaCl2 to get desired concentration. Final concentration of DMSO in the reaction was 0.5% (v/v). Human TRPV3 expressing CHO cells were grown in DMEM/F-12 medium with 10% FBS, 1% penicillin-streptomycin solution, 400 μg/ml of G-418. […] Radioactivity in the lysate was measured in Packardt Top count after addition of liquid scintillant. […] IC50 value was calculated from concentration response curve by nonlinear regression analysis using GraphPad PRISM software.

Sequence of Human TRPV3 (Q8NET8 whole entry): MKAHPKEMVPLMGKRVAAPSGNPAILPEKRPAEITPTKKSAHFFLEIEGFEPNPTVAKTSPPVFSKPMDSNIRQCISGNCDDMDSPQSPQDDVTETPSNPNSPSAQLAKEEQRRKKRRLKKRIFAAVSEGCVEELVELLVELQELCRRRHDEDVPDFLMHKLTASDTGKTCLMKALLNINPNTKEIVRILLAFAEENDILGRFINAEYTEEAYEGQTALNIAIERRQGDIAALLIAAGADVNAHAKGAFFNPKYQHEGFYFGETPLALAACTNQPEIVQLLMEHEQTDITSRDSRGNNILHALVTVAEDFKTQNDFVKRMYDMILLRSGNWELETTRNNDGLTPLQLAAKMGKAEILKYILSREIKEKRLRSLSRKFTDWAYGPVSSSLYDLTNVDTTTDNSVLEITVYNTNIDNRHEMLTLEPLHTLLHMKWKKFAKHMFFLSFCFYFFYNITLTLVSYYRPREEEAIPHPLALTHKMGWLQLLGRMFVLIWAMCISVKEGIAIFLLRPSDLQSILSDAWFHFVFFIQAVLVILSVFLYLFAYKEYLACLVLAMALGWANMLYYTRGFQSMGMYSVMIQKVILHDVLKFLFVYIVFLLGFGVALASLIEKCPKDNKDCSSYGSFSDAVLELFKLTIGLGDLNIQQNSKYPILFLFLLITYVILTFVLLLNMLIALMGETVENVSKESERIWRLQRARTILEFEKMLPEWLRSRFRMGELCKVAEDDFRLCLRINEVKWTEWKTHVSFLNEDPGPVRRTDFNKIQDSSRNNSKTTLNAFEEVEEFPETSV

Consider `COc1cccc(CNC(=O)CC2CC3(CCC3)Oc3ccc(Cl)cc32)c1OC1CCCC1` (stereo not shown) [Example 2, 2-(6-Chloro-3,4-dihydrospiro[chromene-2,1′-cyclobutan]-4-yl)-N-(2-cyclopentyloxy-3-methoxybenzyl)acetamide], for which the IC50 is 725.3 n.M.
